Patent US20220062240A1, “METHODS OF TREATING CANCER USING A CLK INHIBITOR” (BioSplice Therapeutics, Inc., priority 2018, published 2022)
pEC50: −log10 of the molar value. Where two headings read alike, the source gives them in different places. Blank lines part the entries; values can stand above or below the molecule they belong to.

Tests used:
[1] = tested on: prostate cancer (5 cell lines); test: CellTiter-Glo Viability Assay, prostate cancer; format: cell-based; conditions: Homo sapiens
[2] = tested on: pancreatic cancer (8 cell lines); test: CellTiter-Glo Viability Assay, pancreatic cancer; format: cell-based; conditions: Homo sapiens, inhibition of cancer cell proliferation
[3] = tested on: ovarian cancer (4 cell lines); test: CellTiter-Glo Viability Assay, ovarian cancer; format: cell-based; conditions: Homo sapiens, inhibition of cancer cell proliferation
HCC1599 = test: CellTiter-Glo Viability Assay, breast cancer; format: cell-based; conditions: Homo sapiens, 96 h; HCC1599, breast cancer, four days; read-out: EC50
BT-549 = test: CellTiter-Glo Viability Assay, breast cancer; format: cell-based; conditions: Homo sapiens, 96 h; BT-549, breast cancer, four days; read-out: EC50
MCF7 = test: CellTiter-Glo Viability Assay, breast cancer; format: cell-based; conditions: Homo sapiens, 96 h; MCF7, breast cancer, four days; read-out: EC50
T47D = test: CellTiter-Glo Viability Assay, breast cancer; format: cell-based; conditions: Homo sapiens, 96 h, breast cancer, four days, read-out: EC50
MDA-MB-231-Luc = test: CellTiter-Glo Viability Assay, breast cancer; format: cell-based; conditions: Homo sapiens, 96 h; MDA-MB-231-Luc, breast cancer, four days; read-out: EC50
CAMA1 = test: CellTiter-Glo Viability Assay, breast cancer; format: cell-based; conditions: Homo sapiens, CAMA-1, 96 h; CAMA1, breast cancer, four days; read-out: EC50
DU4475 = test: CellTiter-Glo Viability Assay, breast cancer; format: cell-based; conditions: Homo sapiens, DU-4475, 96 h; DU4475, breast cancer, four days; read-out: EC50
ZR-75-1 = test: CellTiter-Glo Viability Assay, breast cancer; format: cell-based; conditions: Homo sapiens, 96 h; ZR-75-1, breast cancer, four days; read-out: EC50
[4] = tested on: lung cancer (4 cell lines); test: CellTiter-Glo Viability Assay, lung cancer; format: cell-based; conditions: Homo sapiens, inhibition of cancer cell proliferation
[5] = tested on: haematopoietic & lymphoid tumors (13 cell lines); test: CellTiter-Glo Viability Assay, haematopoietic & lymphoid tumors; format: cell-based; conditions: Homo sapiens, inhibition of cancer cell proliferation
[6] = tested on: liver cancer (3 cell lines); test: CellTiter-Glo Viability Assay, liver cancer; format: cell-based; conditions: Homo sapiens, inhibition of cancer cell proliferation
[7] = tested on: colorectal cancer (6 cell lines); test: CellTiter-Glo Viability Assay, colorectal cancer; format: cell-based; conditions: Homo sapiens, inhibition of cancer cell proliferation
all 50 cell lines = test: CellTiter-Glo Viability Assay, average across all cell lines; format: cell-based; conditions: Homo sapiens; across all 50 cell lines; read-out: average EC50 for inhibition of cancer cell proliferation
In short: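 Proliferation of a multi-tissue human cancer line panel is assessed over four days at 37° C and 5% CO2, seeding 300-3,000 cells/well. Viability is quantified by CellTiter-Glo luminescence, and EC50 values are calculated.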

CLK2 = biological target: T1, CLK2 (Homo sapiens, UniProt P49760); test: CLK2 kinase activity assay (Z-lyte, Ser/Thr 6 peptide); format: biochemical; conditions: recombinant CLK2 kinase, ATP 60 μM; read-out: EC50
T1 construct: purchased Thermo Fisher (Life Technologies), Z'-LYTE Kinase Assay Kits
Description: All reactions were performed in duplicate.

[8] = DU-145, read-out: Prostate cancer EC50 Du-145
[9] = PC-3, PC3 cell line, inhibition of cancer cell proliferation, read-out: Prostate cancer EC50 PC3
[10] = 22Rv1 cell line, inhibition of cancer cell proliferation, read-out: Prostate cancer EC50 22Rv1
[11] = LNCap clone FGC cell line, inhibition of cancer cell proliferation, read-out: Prostate cancer EC50 LNCap clone FGC
[12] = VCaP (Sigma) cell line, inhibition of cancer cell proliferation, read-out: Prostate cancer EC50 VCaP (Sigma)
[13] = BXPC-3, BxPC3 cell line, read-out: Pancreatic cancer, EC50 BxPC3
[14] = CAPAN-1, Capan1 cell line, read-out: Pancreatic cancer, EC50 Capan1
[15] = Capan-2, Capan2 cell line, read-out: Pancreatic cancer, EC50 Capan2
[16] = MIA PaCa-2 cell line, read-out: Pancreatic cancer, EC50 MIA PaCa-2
[17] = PANC 05.04 cell line, read-out: Pancreatic cancer, EC50 PANC 05.04
[18] = PANC-1 cell line, read-out: Pancreatic cancer, EC50 PANC-1
[19] = UPAFII cell line, read-out: Pancreatic cancer, EC50 UPAFII
[20] = PA-1, PA1 cell line, read-out: Ovarian cancer, EC50 (μM) PA1
[21] = TOV112D, TOV-112D cell line, read-out: Ovarian cancer, EC50 (μM) TOV-112D
[22] = OV-90 cell line, read-out: Ovarian cancer, EC50 (μM) OV-90
[23] = OVCAR-3 cell line, read-out: Ovarian cancer, EC50 (μM) OVCAR-3
[24] = A-427, A427 cell line, read-out: Lung cancer, EC50 (μM) A427
[25] = HCC78, HCC-78 cell line, read-out: Lung cancer, EC50 (μM) HCC-78
[26] = NCI-H460 cell line, read-out: Lung cancer, EC50 (μM) NCI-H460
[27] = NCI-H522 cell line, read-out: Lung cancer, EC50 (μM) NCI-H522
[28] = DND41, DND-41 cell line, read-out: Haematopoietic & Lymphoid tumors, EC50 (μM) DND-41
[29] = MV4-11, MV-4-11 cell line, read-out: Haematopoietic & Lymphoid tumors, EC50 (μM) MV-4-11
[30] = Rec1, REC-1 cell line, read-out: Haematopoietic & Lymphoid tumors, EC50 (μM) REC-1
[31] = SU-DHL-4, SUDHL4 cell line, read-out: Haematopoietic & Lymphoid tumors, EC50 (μM) SUDHL4
[32] = HL-60 cell line, read-out: Haematopoietic & Lymphoid tumors, EC50 (μM) HL-60
[33] = JM1 cell line, read-out: Haematopoietic & Lymphoid tumors, EC50 (μM) JM1
[34] = JURKAT, Clone E6-1 cell line, read-out: Haematopoietic & Lymphoid tumors, EC50 (μM) JURKAT, Clone E6-1
[35] = JeKo-1 cell line, read-out: Haematopoietic & Lymphoid tumors, EC50 (μM) JeKo-1
[36] = KASUMI-1 cell line, read-out: Haematopoietic & Lymphoid tumors, EC50 (μM) KASUMI-1
[37] = Loucy cell line, read-out: Haematopoietic & Lymphoid tumors, EC50 (μM) Loucy
[38] = MOLT-4 cell line, read-out: Haematopoietic & Lymphoid tumors, EC50 (μM) MOLT-4
[39] = TF-1 cell line, read-out: Haematopoietic & Lymphoid tumors, EC50 (μM) TF-1
[40] = TOLEDO cell line, read-out: Haematopoietic & Lymphoid tumors, EC50 (μM) TOLEDO
[41] = SNU-398, SNU398 cell line, read-out: Liver cancer, EC50 SNU398
[42] = HEPG2 cell line, read-out: Liver cancer, EC50 HEPG2
[43] = PLC/PRF/5 cell line, read-out: Liver cancer, EC50 PLC/PRF/5
[44] = HCT-116, HCT116 cell line, read-out: Colorectal cancer, EC50 (μM) HCT116
[45] = HT-29, HT29 cell line, read-out: Colorectal cancer, EC50 (μM) HT29
[46] = SW-620, SW620 cell line, read-out: Colorectal cancer, EC50 (μM) SW620
[47] = DLD-1 cell line, read-out: Colorectal cancer, EC50 (μM) DLD-1
[48] = SW48 cell line, read-out: Colorectal cancer, EC50 (μM) SW48
[49] = SW480 cell line, read-out: Colorectal cancer, EC50 (μM) SW480

T1 sequence (P49760 whole entry): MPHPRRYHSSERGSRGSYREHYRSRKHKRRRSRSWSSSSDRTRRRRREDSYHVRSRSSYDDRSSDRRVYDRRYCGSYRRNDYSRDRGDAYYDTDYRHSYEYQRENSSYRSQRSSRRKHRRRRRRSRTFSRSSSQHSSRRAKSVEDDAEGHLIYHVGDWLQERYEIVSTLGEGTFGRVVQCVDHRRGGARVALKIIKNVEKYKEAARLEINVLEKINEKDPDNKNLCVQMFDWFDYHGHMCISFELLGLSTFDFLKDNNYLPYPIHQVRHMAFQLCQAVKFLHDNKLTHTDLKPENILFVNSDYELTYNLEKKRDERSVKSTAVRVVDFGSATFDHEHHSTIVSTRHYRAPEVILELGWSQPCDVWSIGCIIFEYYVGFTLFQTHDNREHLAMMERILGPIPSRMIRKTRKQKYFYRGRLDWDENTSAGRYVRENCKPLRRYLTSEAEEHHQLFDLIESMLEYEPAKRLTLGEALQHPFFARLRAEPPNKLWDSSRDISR

pEC50 [1, 8]: 6.03
pEC50 [1, 9]: 6.26
pEC50 [1, 10]: 6.40
pEC50 [1, 11]: 5.86
pEC50 [1, 12]: 5.77
pEC50 [2, 13]: 5.68
pEC50 [2, 14]: 6.09
pEC50 [2, 15]: 5.93
pEC50 [2, 16]: 6.66
pEC50 [2, 17]: 5.97
pEC50 [2, 18]: 5.78
pEC50 [2, 19]: 6.20
EC50 [3, 20]: 0.725 µM
EC50 [3, 21]: 0.277 µM
EC50 [3, 22]: 1.07 µM
EC50 [3, 23]: 0.194 µM
pEC50 (HCC1599): 6.17
pEC50 (BT-549): 5.98
pEC50 (MCF7): 5.47
pEC50 (T47D): 5.91
pEC50 (MDA-MB-231-Luc): 6.10
pEC50 (CAMA1): 6.19
pEC50 (DU4475): 6.33
pEC50 (ZR-75-1): 6.02
EC50 [4, 24]: 0.481 µM
EC50 [4, 25]: 1.07 µM
EC50 [4, 26]: 2.05 µM
EC50 [4, 27]: 0.246 µM
EC50 [5, 28]: 0.547 µM
EC50 [5, 29]: 0.123 µM
EC50 [5, 30]: 1.77 µM
EC50 [5, 31]: 0.533 µM
EC50 [5, 32]: 1.63 µM
EC50 [5, 33]: 0.167 µM
EC50 [5, 34]: 1.33 µM
EC50 [5, 35]: 0.142 µM
EC50 [5, 36]: 0.547 µM
EC50 [5, 37]: 0.385 µM
EC50 [5, 38]: 0.734 µM
EC50 [5, 39]: 2.39 µM
EC50 [5, 40]: 0.373 µM
pEC50 [6, 41]: 6.92
pEC50 [6, 42]: 6.18
pEC50 [6, 43]: 5.59
EC50 [7, 44]: 0.455 µM
EC50 [7, 45]: 1.41 µM
EC50 [7, 46]: 0.241 µM
EC50 [7, 47]: 1.53 µM
EC50 [7, 48]: 0.16 µM
EC50 [7, 49]: 0.384 µM
pEC50 (CLK2): 8.59
Structure (SMILES): CN1CCC2(CC1)CN(c1cc(C(=O)Nc3cc4cc(-c5cnn(C)c5CO)ccc4cn3)ccn1)C2 [Compound 76]
pEC50 (all 50 cell lines): 6.04

pEC50 [1, 8]: 6.26
pEC50 [1, 9]: 6.36
pEC50 [1, 10]: 6.46
pEC50 [1, 11]: 6.23
pEC50 [1, 12]: 6.08
EC50 [3, 20]: 0.495 µM
EC50 [3, 21]: 0.229 µM
EC50 [3, 22]: 1.49 µM
EC50 [3, 23]: 0.195 µM
pEC50 (HCC1599): 6.77
pEC50 (BT-549): 6.46
pEC50 (MCF7): 5.72
pEC50 (T47D): 6.00
pEC50 (MDA-MB-231-Luc): 6.12
pEC50 (CAMA1): 6.16
pEC50 (DU4475): 6.52
pEC50 (ZR-75-1): 6.01
EC50 [4, 24]: 0.355 µM
EC50 [4, 25]: 0.835 µM
EC50 [4, 26]: 0.574 µM
EC50 [4, 27]: 0.188 µM
EC50 [5, 28]: 0.491 µM
EC50 [5, 29]: 0.076 µM
EC50 [5, 30]: 0.134 µM
EC50 [5, 31]: 0.376 µM
EC50 [5, 32]: 0.76 µM
EC50 [5, 33]: 0.135 µM
EC50 [5, 34]: 0.464 µM
EC50 [5, 35]: 0.157 µM
EC50 [5, 36]: 0.203 µM
EC50 [5, 37]: 0.241 µM
EC50 [5, 38]: 0.465 µM
EC50 [5, 39]: 0.673 µM
EC50 [5, 40]: 0.134 µM
pEC50 [6, 41]: 6.92
pEC50 [6, 42]: 6.15
pEC50 [6, 43]: 5.96
EC50 [7, 44]: 0.239 µM
EC50 [7, 45]: 0.52 µM
EC50 [7, 46]: 0.163 µM
EC50 [7, 47]: 0.215 µM
EC50 [7, 48]: 0.151 µM
EC50 [7, 49]: 0.313 µM
pEC50 (CLK2): 8.72
Structure (SMILES): Cn1cc(-c2ccc3cnc(NC(=O)c4ccc5c(c4)CNCC5)cc3c2)cn1 [Compound 74]
pEC50 (all 50 cell lines): 6.30

pEC50 [1, 8]: 6.18
pEC50 [1, 9]: 6.25
pEC50 [1, 10]: 6.10
pEC50 [1, 11]: 6.29
pEC50 [1, 12]: 5.53
pEC50 [2, 13]: 6.17
pEC50 [2, 14]: 6.45
pEC50 [2, 15]: 6.12
pEC50 [2, 16]: 6.27
pEC50 [2, 17]: 5.89
pEC50 [2, 18]: 5.83
pEC50 [2, 19]: 6.23
EC50 [3, 20]: 0.146 µM
EC50 [3, 21]: 0.437 µM
EC50 [3, 22]: 0.918 µM
EC50 [3, 23]: 0.645 µM
pEC50 (HCC1599): 6.68
pEC50 (BT-549): 6.38
pEC50 (MCF7): 6.00
pEC50 (T47D): 6.05
pEC50 (MDA-MB-231-Luc): 6.97
pEC50 (CAMA1): 6.34
pEC50 (DU4475): 6.94
pEC50 (ZR-75-1): 6.21
EC50 [4, 24]: 0.26 µM
EC50 [4, 25]: 1.19 µM
EC50 [4, 26]: 0.81 µM
EC50 [4, 27]: 0.379 µM
EC50 [5, 28]: 0.635 µM
EC50 [5, 29]: 0.008 µM
EC50 [5, 30]: 0.085 µM
EC50 [5, 31]: 0.309 µM
EC50 [5, 32]: 1.01 µM
EC50 [5, 33]: 0.319 µM
EC50 [5, 34]: 0.78 µM
EC50 [5, 35]: 0.243 µM
EC50 [5, 36]: 0.184 µM
EC50 [5, 37]: 0.576 µM
EC50 [5, 38]: 0.715 µM
EC50 [5, 39]: 0.392 µM
EC50 [5, 40]: 0.141 µM
pEC50 [6, 41]: 6.88
pEC50 [6, 42]: 6.18
pEC50 [6, 43]: 5.90
EC50 [7, 49]: 0.456 µM
Structure (SMILES): Cc1n[nH]c2ccc(-c3cncc(N[C@H]4CC[C@H](O)CC4)n3)cc12 [Compound 65]
pEC50 (all 50 cell lines): 6.21
